Our source for the EC50 values is patent US11613525B2 (CTXT PTY LIMITED, priority 2018, dated 2023).

For assay [1], the target named is huSTING (HAQ) (Homo sapiens (Human), UniProt Q86WV6, G230A/H232R/R293Q/R71H). The assay is described as follows: THP-1 reporter cell line assay, THP-1 STING Lucia ISG cells. The conditions noted are these: THP-1 STING Lucia ISG cells, read-out: Cellular EC50 huSTING (HAQ). In kind it is cell-based.
Assay [2] deals with huSTING (WT) (Homo sapiens (Human), UniProt Q86WV6, H232R). The assay is described as follows: THP-1 reporter cell line assay, THP-1-Dual KI-hSTING-R232 cells. In kind it is cell-based. The following applies: read-out: Cellular EC50 huSTING (WT).
[3] abbreviates: modified method, top concentration 40 μM, pin tool, EnVision.

Molecules are shown by their SMILES. Like-named read-outs stand apart in the source and are kept apart here.

Sequence of huSTING (HAQ) (Q86WV6 whole entry R71H/G230A/H232R/R293Q): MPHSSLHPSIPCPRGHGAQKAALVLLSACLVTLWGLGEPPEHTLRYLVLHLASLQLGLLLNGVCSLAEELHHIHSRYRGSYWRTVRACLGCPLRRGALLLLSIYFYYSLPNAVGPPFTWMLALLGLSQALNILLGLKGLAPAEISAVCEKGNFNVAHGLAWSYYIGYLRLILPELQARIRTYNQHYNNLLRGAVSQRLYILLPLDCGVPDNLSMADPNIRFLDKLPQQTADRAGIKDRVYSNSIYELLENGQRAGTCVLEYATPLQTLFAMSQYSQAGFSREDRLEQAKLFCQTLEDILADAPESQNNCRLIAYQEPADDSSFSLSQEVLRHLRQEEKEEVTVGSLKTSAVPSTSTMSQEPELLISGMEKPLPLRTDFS
Sequence of huSTING (WT) (Q86WV6 whole entry H232R): as the sequence (Q86WV6 whole entry R71H/G230A/H232R/R293Q) above, with H71R, A230G, Q293R counted along it

As to `CCOC(=O)c1sc2cc(Cl)cc(F)c2c1COc1ccc(C(N)=O)cc1` [Example 19, Ethyl 3-((4-carbamoylphenoxy)methyl)-6-chloro-4-fluorobenzo[b]thiophene-2-carboxylate], the EC50 is more than 50000 nM in assay [1] (24 h, top concentration 50 μM) and more than 50000 nM in assay [2].
For the compound `CC(C)(C)C(=O)OCOC(=O)c1sc2cccc(Br)c2c1COc1c(F)cc(C(N)=O)cc1F` [Example 128, (Pivaloyloxy)methyl 4-bromo-3-((4-carbamoyl-2,6-difluorophenoxy)methyl)benzo[b]thiophene-2-carboxylate], the EC50 is 68 nM in assay [1] (setting [3]) and 210 nM in assay [2].
In the same order, the values of `C=Cc1cc(OCc2c(C(=O)OCC)sc3cccc(Cl)c23)ccc1C(N)=O` [Example 168, Ethyl 3-((4-carbamoyl-3-vinylphenoxy)methyl)-4-chlorobenzo[b]thiophene-2-carboxylate] are 7440 nM and more than 40000 nM.
For the compound `Cc1oc(=O)oc1COC(=O)c1sc2cccc(Cl)c2c1COc1c(F)cc(C(N)=O)cc1F` [Example 126, (5-Methyl-2-oxo-1,3-dioxol-4-yl)methyl 3-((4-carbamoyl-2,6-difluorophenoxy)methyl)-4-chlorobenzo[b]thiophene-2-carboxylate], the figures for the 50% effective concentration (EC50) in assay [1] (setting [3]) and in assay [2] were 39 nM and 187 nM, respectively.
For `CCOC(=O)c1sc2ccc(F)c(F)c2c1COc1ccc(C(N)=O)cc1` [Example 15, Ethyl 3-((4-carbamoylphenoxy)methyl)-4,5-difluorobenzo[b]thiophene-2-carboxylate], the EC50 in assay [1] (24 h, top concentration 50 μM) was 2400 nM; in assay [2], 2570 nM.
For the compound `COc1cccc2sc(C(=O)OCCN3CCOCC3)c(COc3ccc(C(N)=O)cc3)c12` [Example 157, 2-Morpholinoethyl 3-((4-carbamoylphenoxy)methyl)-4-methoxybenzo[b]thiophene-2-carboxylate], the EC50 in assay [1] (setting [3]) stood at 373 nM; in assay [2], 2030 nM.
In the same order, the values of `CCOC(=O)c1sc2cccc(Cl)c2c1COc1c(F)cc(C(N)=O)cc1CO` [Example 110, Ethyl 3-((4-carbamoyl-2-fluoro-6-(hydroxymethyl)phenoxy)methyl)-4-chlorobenzo[b]thiophene-2-carboxylate] are 13 nM and 52 nM.
As to `CCOC(=O)c1sc2cccc(F)c2c1COc1ccc(C(N)=O)c(C)c1` [Example 53, Ethyl 3-((4-carbamoyl-3-methylphenoxy)methyl)-4-fluorobenzo[b]thiophene-2-carboxylate], the EC50 in assay [1] (24 h, top concentration 50 μM) is more than 50000 nM; in assay [2], more than 50000 nM.
For `CCOC(=O)c1sc2c(Br)ccc(Cl)c2c1COc1c(F)cc(C(N)=O)cc1F` [Example 99, Ethyl 7-bromo-3-((4-carbamoyl-2,6-difluorophenoxy)methyl)-4-chlorobenzo[b]thiophene-2-carboxylate], the 50% effective concentration (EC50) in assay [1] (setting [3]) was 22 nM; in assay [2], 135 nM.
In the same order, the values of `CCOC(=O)c1sc2cccc(OC)c2c1COc1c(F)cc(C(N)=O)cc1F` [Example 165, Ethyl 3-((4-carbamoyl-2,6-difluorophenoxy)methyl)-4-methoxybenzo[b]thiophene-2-carboxylate] are 127 nM and 6150 nM.
`CCC(=O)OC(OC(=O)c1sc2cccc(Cl)c2c1COc1c(F)cc(C(N)=O)cc1F)C(C)C` (stereo not drawn) [Example 125, 2-Methyl-1-(propionyloxy)propyl 3-((4-carbamoyl-2,6-difluorophenoxy)methyl)-4-chlorobenzo[b]thiophene-2-carboxylate]: the EC50 in assay [1] (setting [3]) amounted to 86 nM; in assay [2], 529 nM.
For the compound `CCOC(=O)c1sc2cccc(F)c2c1COc1ccc(C(N)=O)c(Cl)c1` [Example 49, Ethyl 3-((4-carbamoyl-3-chlorophenoxy)methyl)-4-fluorobenzo[b]thiophene-2-carboxylate], the EC50 in assay [1] (24 h, top concentration 50 μM) was 17200 nM; in assay [2], 24100 nM.
For `CCOC(=O)c1sc2c(CO)ccc(Cl)c2c1COc1c(F)cc(C(N)=O)cc1F` [Example 145, Ethyl 3-((4-carbamoyl-2,6-difluorophenoxy)methyl)-4-chloro-7-(hydroxymethyl)benzo[b]thiophene-2-carboxylate], the EC50 in assay [1] (setting [3]) turned out to be 746 nM; in assay [2], 3840 nM.
For `COc1cccc2sc(C(=O)OC(C)C)c(COc3ccc(C(N)=O)cc3)c12` [Example 154, Isopropyl 3-((4-carbamoylphenoxy)methyl)-4-methoxybenzo[b]thiophene-2-carboxylate], the values for the EC50 in assay [1] (setting [3]) and in assay [2] were 448 nM and 2050 nM, respectively.
The corresponding values for `NC(=O)c1cc(F)c(OCc2c(C(=O)OCCN3CCOCC3)sc3cccc(Cl)c23)c(F)c1` [Example 137, 2-Morpholinoethyl 3-((4-carbamoyl-2,6-difluorophenoxy)methyl)-4-chlorobenzo[b]thiophene-2-carboxylate] are 21 nM and 226 nM.
On to `CC(C)(C)OC(=O)OCOC(=O)c1sc2cccc(Cl)c2c1COc1c(F)cc(C(N)=O)cc1F` [Example 130, ((tert-Butoxycarbonyl)oxy)methyl 3-((4-carbamoyl-2,6-difluorophenoxy)methyl)-4-chlorobenzo[b]thiophene-2-carboxylate], for which the EC50 was found to be 60 nM in assay [1] (setting [3]) and 687 nM in assay [2].
Regarding `CC(=O)OC(C)OC(=O)c1sc2cccc(Cl)c2c1COc1c(F)cc(C(N)=O)cc1F` (stereo not drawn) [Example 134, 1-Acetoxyethyl 3-((4-carbamoyl-2,6-difluorophenoxy)methyl)-4-chlorobenzo[b]thiophene-2-carboxylate], the EC50 in assay [1] (setting [3]) amounted to 42 nM; in assay [2], 217 nM.
In the case of `CCOC(=O)c1sc2cccc(C3CC3)c2c1COc1c(F)cc(C(N)=O)cc1F` [Example 142, Ethyl 3-((4-carbamoyl-2,6-difluorophenoxy)methyl)-4-cyclopropylbenzo[b]thiophene-2-carboxylate], the results for the EC50 in assay [1] (setting [3]) and in assay [2] were 181 nM and 3120 nM, respectively.
In the same order, the values of `CCC(=O)OC(OC(=O)c1sc2c(F)ccc(Br)c2c1COc1c(F)cc(C(N)=O)cc1F)C(C)C` (stereo not drawn) [Example 140, 2-Methyl-1-(propionyloxy)propyl 4-bromo-3-((4-carbamoyl-2,6-difluorophenoxy)methyl)-7-fluorobenzo[b]thiophene-2-carboxylate] are 46 nM and 160 nM.
The corresponding values for `CN(C)C(=O)OCOC(=O)c1sc2cccc(Cl)c2c1COc1c(F)cc(C(N)=O)cc1F` [Example 138, ((Dimethylcarbamoyl)oxy)methyl 3-((4-carbamoyl-2,6-difluorophenoxy)methyl)-4-chlorobenzo[b]thiophene-2-carboxylate] are 14 nM and 242 nM.
In the case of `CCOC(=O)c1sc2cccc(Br)c2c1COc1ccc(C(N)=O)cc1` [Example 21, Ethyl 4-bromo-3-((4-carbamoylphenoxy)methyl)benzo[b]thiophene-2-carboxylate], the EC50 in assay [1] (24 h, top concentration 50 μM) stood at 474 nM; in assay [2], 576 nM.
For `COC(=O)c1sc2cccc(F)c2c1COc1ccc(C(N)=O)cc1` [Example 141, Methyl 3-((4-carbamoylphenoxy)methyl)-4-fluorobenzo[b]thiophene-2-carboxylate], the EC50 came out at 1770 nM in assay [1] (setting [3]) and 3340 nM in assay [2].
With `CCOC(=O)c1sc2ccnc(OC)c2c1COc1c(F)cc(C(N)=O)cc1CO` [Example 121, Ethyl 3-((4-carbamoyl-2-fluoro-6-(hydroxymethyl)phenoxy)methyl)-4-methoxythieno[3,2-c]pyridine-2-carboxylate], the EC50 worked out at 59 nM in assay [1] (setting [3]) and 580 nM in assay [2].
`CCOC(=O)c1sc2ccc(F)c(Cl)c2c1COc1ccc(C(N)=O)cc1` [Example 83, Ethyl 3-((4-carbamoylphenoxy)methyl)-4-chloro-5-fluorobenzo[b]thiophene-2-carboxylate]: the EC50 in assay [1] (24 h, top concentration 50 μM) is 2610 nM; in assay [2], more than 50000 nM.
With `CCOC(=O)c1sc2cccc(Cl)c2c1CNc1ccc(C(N)=O)cc1` [Example 75, Ethyl 3-(((4-carbamoylphenyl)amino)methyl)-4-chlorobenzo[b]thiophene-2-carboxylate], the EC50 was 17900 nM in assay [1] (24 h, top concentration 50 μM) and more than 50000 nM in assay [2].
As to `CCOC(=O)c1sc2c(F)ccc(Br)c2c1COc1c(F)cc(C(N)=O)cc1F` [Example 116, Ethyl 4-bromo-3-((4-carbamoyl-2,6-difluorophenoxy)methyl)-7-fluorobenzo[b]thiophene-2-carboxylate], the concentration for a half-maximal effect (EC50) in assay [1] (setting [3]) came out at 24 nM; in assay [2] it was 76 nM.
The corresponding values for `CC(=O)N[C@H](C(=O)OCOC(=O)c1sc2cccc(Cl)c2c1COc1c(F)cc(C(N)=O)cc1F)C(C)C` [Example 139, ((Acetyl-L-valyl)oxy)methyl 3-((4-carbamoyl-2,6-difluorophenoxy)methyl)-4-chlorobenzo[b]thiophene-2-carboxylate] are 36 nM and 291 nM.
Regarding `CCOC(=O)c1sc2ccc(F)c(Cl)c2c1COc1c(F)cc(C(N)=O)cc1F` [Example 85, Ethyl 3-((4-carbamoyl-2,6-difluorophenoxy)methyl)-4-chloro-5-fluorobenzo[b]thiophene-2-carboxylate], the EC50 in assay [1] (24 h, top concentration 50 μM) is 1630 nM; in assay [2], more than 50000 nM.
The corresponding values for `CCOC(=O)c1sc2cc(F)cc(F)c2c1COc1ccc(C(N)=O)cc1` [Example 31, Ethyl 3-((4-carbamoylphenoxy)methyl)-4,6-difluorobenzo[b]thiophene-2-carboxylate] are 6760 nM and 6910 nM.
As for `CCOC(=O)c1sc2cccc(Cl)c2c1COc1c(Cl)cc(C(N)=O)cc1Cl` [Example 39, Ethyl 3-((4-carbamoyl-2,6-dichlorophenoxy)methyl)-4-chlorobenzo[b]thiophene-2-carboxylate], the EC50 in assay [1] (24 h, top concentration 50 μM) came out at 1480 nM; in assay [2], 1780 nM.

Usually EC50 stands for the concentration giving half of the maximal effect.
